Reference: ChEMBL document CHEMBL4138294, “Cybastacines A and B: Antibiotic Sesterterpenes from a Nostoc sp. Cyanobacterium” (2018)

Experiments:
Assay type in all cases: functional
[1] = tested on: Mycobacteroides abscessus; assay: Antibacterial activity against Mycobacterium abscessus clinical isolate by CLSI M07-A9 protocol based assay
Nocardia carnea = assay: Antibacterial activity against Nocardia carnea clinical isolate by CLSI M07-A9 protocol based assay
Nocardia cyriacigeorgica = assay: Antibacterial activity against Nocardia cyriacigeorgica clinical isolate by CLSI M07-A9 protocol based assay
Tsukamurella pulmonis = assay: Antibacterial activity against Tsukamurella pulmonis clinical isolate by CLSI M07-A9 protocol based assay
Streptococcus pyogenes = assay: Antibacterial activity against Streptococcus pyogenes clinical isolate by CLSI M07-A9 protocol based assay
Enterococcus faecalis = assay: Antibacterial activity against Enterococcus faecalis clinical isolate by CLSI M07-A9 protocol based assay
Enterococcus faecium = assay: Antibacterial activity against Enterococcus faecium clinical isolate by CLSI M07-A9 protocol based assay
Staphylococcus aureus = assay: Antibacterial activity against Staphylococcus aureus clinical isolate by CLSI M07-A9 protocol based assay
[2] = tested on: Staphylococcus epidermidis; assay: Antibacterial activity against Staphylococcus epidermidis clinical isolate by CLSI M07-A9 protocol based assay

SMILES	MIC [1] [µg/mL]	MIC (Nocardia carnea) [µg/mL]	MIC (Nocardia cyriacigeorgica) [µg/mL]	MIC (Tsukamurella pulmonis) [µg/mL]	MIC (Streptococcus pyogenes) [µg/mL]	MIC (Enterococcus faecalis) [µg/mL]	MIC (Enterococcus faecium) [µg/mL]	MIC (Staphylococcus aureus) [µg/mL]	MIC [2] [µg/mL]
CC1(C)CCC[C@]2(C)C3=C(CC[C@@H]12)[C@@]1(C)CC[C@@]2(C)NC(=N)NC[C@@H]2[C@@]1(C)C[C@H]3O	≤ 16	≤ 16	≤ 16	≤ 8	≤ 32	≤ 32	≤ 32	≤ 32	≤ 32
CC1(C)CCC[C@]2(C)[C@@H]3C(=CC[C@@H]12)[C@@]1(C)CC[C@@]2(C)NC(=N)NC[C@@H]2[C@@]1(C)C[C@H]3O	≤ 4	≤ 4	≤ 4	≤ 2	≤ 4	≤ 4	≤ 4	≤ 4	≤ 4
CN[C@H](CC(C)C)C(=O)N[C@H]1C(=O)N[C@@H](CC(N)=O)C(=O)N[C@H]2C(=O)N[C@H]3C(=O)N[C@H](C(=O)N[C@H](C(=O)O)c4cc(O)cc(O)c4-c4cc3ccc4O)[C@H](O)c3ccc(c(Cl)c3)Oc3cc2cc(c3O[C@@H]2O[C@H](CO)[C@@H](O)[C@H](O)[C@H]2O[C@H]2C[C@](C)(N)[C@H](O)[C@H](C)O2)Oc2ccc(cc2Cl)[C@H]1O [VANCOMYCIN]	–	–	–	–	≤ 16	≤ 8	≤ 8	≤ 8	≤ 8
C[C@@H](O)[C@H]1C(=O)N2C(C(=O)O)=C(SCCNC=N)C[C@H]12 [IMIPENEM ANHYDROUS]	≤ 8	≤ 8	≤ 8	≤ 8	–	–	–	–	–
